Measurements published in ChEMBL document CHEMBL5357005, “Discovery and Heterologous Production of Tetrapetalones Provide Insights into the Formation of the Tetracyclic System” (J Nat Prod, 2024).
Activity calls are given as the source filed them.

Experiments:
Pseudomonas aeruginosa = experiment: Antimicrobial activity against Pseudomonas aeruginosa PA01 assessed as reduction in microbial growth measured for 24 hrs by paper disc diffusion method; assay type: functional, organism-based
SW480 = experiment: Cytotoxicity against human SW480 cells assessed as reduction in cell viability at 50 uM by sulfonyl rhodamine B colorimetry analysis; assay type: functional, cell-based
Candida albicans = experiment: Antifungal activity against Candida albicans 5314 assessed as reduction in microbial growth measured for 48 hrs by paper disc diffusion method; assay type: functional, organism-based
HCT-116 = experiment: Cytotoxicity against human HCT-116 cells assessed as reduction in cell viability at 50 uM by sulfonyl rhodamine B colorimetry analysis; assay type: functional, cell-based
Staphylococcus aureus = experiment: Antimicrobial activity against Staphylococcus aureus ATCC 25923 assessed as reduction in microbial growth measured for 24 hrs by paper disc diffusion method; assay type: functional, organism-based
Salmonella typhimurium = experiment: Antimicrobial activity against Salmonella enterica subsp. enterica serovar Typhimurium assessed as reduction in microbial growth measured for 24 hrs by paper disc diffusion method; assay type: functional, organism-based

Measured: Activity

CC[C@@]12C=C(C)[C@@H]3[C@@H](C)[C@H](O)C4=CC(=O)C=C(N1C(=O)C(C)=C2O)[C@@]43O
inactive: Pseudomonas aeruginosa | SW480 | Candida albicans | HCT-116 | Staphylococcus aureus | Salmonella typhimurium

CC1=C[C@H]2C(O)=C(C)C(=O)N2C2=CC(=O)C=C3[C@@H](O[C@@H]4CC[C@H](O)[C@H](C)O4)[C@H](C)[C@@H]1[C@]32O
inactive: Pseudomonas aeruginosa | SW480 | Candida albicans | HCT-116 | Staphylococcus aureus | Salmonella typhimurium

CC1=C[C@@]2(C)C(O)=C(C)C(=O)N2C2=CC(=O)C=C3[C@@H](O[C@H]4O[C@H](C)[C@@H](O)[C@H](O)[C@@H]4O)[C@H](C)[C@@H]1[C@]32O
inactive: Pseudomonas aeruginosa | SW480 | Candida albicans | HCT-116 | Staphylococcus aureus | Salmonella typhimurium

CC1=C[C@@]2(C)C(O)=C(C)C(=O)N2C2=CC(=O)C=C3[C@@H](O)[C@H](C)[C@@H]1[C@]32O
inactive: Pseudomonas aeruginosa | SW480 | Candida albicans | HCT-116 | Staphylococcus aureus | Salmonella typhimurium

CC1=C[C@@]2(C)C(O)=C(C)C(=O)N2C2=CC(=O)C=C3[C@@H](O[C@@H]4CC[C@H](O)[C@H](C)O4)[C@H](C)[C@@H]1[C@]32O
inactive: Pseudomonas aeruginosa | SW480 | Candida albicans | HCT-116 | Staphylococcus aureus | Salmonella typhimurium

CC[C@@]12C=C(C)[C@@H]3[C@@H](C)[C@H](O[C@H]4O[C@H](C)[C@@H](O)[C@H](O)[C@@H]4O)C4=CC(=O)C=C(N1C(=O)C(C)=C2O)[C@@]43O
inactive: Pseudomonas aeruginosa | SW480 | Candida albicans | HCT-116 | Staphylococcus aureus | Salmonella typhimurium

CC1=C[C@@]2(CO)C(O)=C(C)C(=O)N2C2=CC(=O)C=C3[C@@H](O[C@@H]4CC[C@H](O)[C@H](C)O4)[C@H](C)[C@@H]1[C@]32O
inactive: Pseudomonas aeruginosa | SW480 | Candida albicans | HCT-116 | Staphylococcus aureus | Salmonella typhimurium

CC[C@@]12C=C(C)[C@@H]3[C@@H](C)[C@H](O[C@@H]4CC[C@H](O)[C@H](C)O4)C4=CC(=O)C=C(N1C(=O)C(C)=C2O)[C@@]43O
inactive: Pseudomonas aeruginosa | SW480 | Candida albicans | HCT-116 | Staphylococcus aureus | Salmonella typhimurium
